Measurements published in patent US10167262B2, “Herbicidal substituted 3-arylpyrazoles” (FMC CORPORATION, priority 2014, dated 2019).

Tested on: windgrass (Apera spica-venti)
Test: Test C postemergence greenhouse test, plant response rating 0-100
Assay type: in vivo
Details: 62 g ai/ha
In short: (§1)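 Formulated compounds applied postemergence; plants 1- to 4-leaf stage. Evaluated visually vs. untreated controls after roughly two weeks (13–15 d) under greenhouse conditions; 100 denotes complete control.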

`CC(C)n1cc(C(=O)c2ccccc2)c(-c2cc(Cl)cc(Cl)c2)n1` [Compound 44] was tested. Which “Plant response rating (0 to 100), Windgrass” value did it give?
Its value is 0.

Same assay, conditions: 125 g ai/ha

`CC(C)n1cc(C(=O)c2ccccc2)c(-c2cc(Cl)cc(Cl)c2)n1` [Compound 44] was tested. Which “Plant response rating (0 to 100), Windgrass” value did it give?
Its value is 0.

Same assay, conditions: 250 g ai/ha, scale 0 to 100

Which “Plant response rating, Windgrass” value does the source give for `CC(C)n1cc(C(=O)c2ccccc2)c(-c2cc(Cl)cc(Cl)c2)n1` [Compound 44] here?
Its value is 0.

Tested on: cocklebur (common cocklebur, Xanthium strumarium)
Test: as above
Assay type: in vivo
Details: 31 g ai/ha
In short: as §1

With `CC(C)n1cc(C(=O)c2ccccc2)c(-c2cc(Cl)cc(Cl)c2)n1` [Compound 44] as the compound, how does the “Plant response rating (0 to 100), Cocklebur” value read?
Its value is 0.

Same assay, conditions: 62 g ai/ha

For `CC(C)n1cc(C(=O)c2ccccc2)c(-c2cc(Cl)cc(Cl)c2)n1` [Compound 44], which “Plant response rating (0 to 100), Cocklebur” value is on record?
The value was 0.

Same assay, conditions: 125 g ai/ha

How did the “Plant response rating (0 to 100), Cocklebur” value turn out when `CC(C)n1cc(C(=O)c2ccccc2)c(-c2cc(Cl)cc(Cl)c2)n1` [Compound 44] was run?
The value was 10.

Same assay, conditions: 250 g ai/ha, scale 0 to 100

Which “Plant response rating, Cocklebur” value does the source give for `CC(C)n1cc(C(=O)c2ccccc2)c(-c2cc(Cl)cc(Cl)c2)n1` [Compound 44] here?
Its value is 30.

Tested on: green foxtail (Setaria viridis)
Test: as above
Assay type: in vivo
Details: 31 g ai/ha
In short: as §1

`CC(C)n1cc(C(=O)c2ccccc2)c(-c2cc(Cl)cc(Cl)c2)n1` [Compound 44] was tested. Which “Plant response rating (0 to 100), Foxtail, Green” value did it give?
Its value is 0.

Same assay, conditions: 62 g ai/ha

With `CC(C)n1cc(C(=O)c2ccccc2)c(-c2cc(Cl)cc(Cl)c2)n1` [Compound 44] as the compound, how does the “Plant response rating (0 to 100), Foxtail, Green” value read?
The value was 0.

Same assay, conditions: 125 g ai/ha

How did the “Plant response rating (0 to 100), Foxtail, Green” value turn out when `CC(C)n1cc(C(=O)c2ccccc2)c(-c2cc(Cl)cc(Cl)c2)n1` [Compound 44] was run?
The value was 0.

Same assay, conditions: 250 g ai/ha, scale 0 to 100

For `CC(C)n1cc(C(=O)c2ccccc2)c(-c2cc(Cl)cc(Cl)c2)n1` [Compound 44], which “Plant response rating, Foxtail, Green” value is on record?
Its value is 0.

Tested on: woolly cupgrass (Eriochloa villosa)
Test: as above
Assay type: in vivo
Details: 31 g ai/ha
In short: as §1

How did the “Plant response rating (0 to 100), Cupgrass, Woolly” value turn out when `CC(C)n1cc(C(=O)c2ccccc2)c(-c2cc(Cl)cc(Cl)c2)n1` [Compound 44] was run?
Its value is 0.

Same assay, conditions: 62 g ai/ha

Which “Plant response rating (0 to 100), Cupgrass, Woolly” value does the source give for `CC(C)n1cc(C(=O)c2ccccc2)c(-c2cc(Cl)cc(Cl)c2)n1` [Compound 44] here?
Its value is 5.

Same assay, conditions: 125 g ai/ha

How did the “Plant response rating (0 to 100), Cupgrass, Woolly” value turn out when `CC(C)n1cc(C(=O)c2ccccc2)c(-c2cc(Cl)cc(Cl)c2)n1` [Compound 44] was run?
Its value is 5.

Same assay, conditions: 250 g ai/ha, scale 0 to 100

For `CC(C)n1cc(C(=O)c2ccccc2)c(-c2cc(Cl)cc(Cl)c2)n1` [Compound 44], which “Plant response rating, Cupgrass, Woolly” value is on record?
The value was 5.

Tested on: downy bromegrass (Bromus tectorum)
Test: as above
Assay type: in vivo
Details: 31 g ai/ha
In short: as §1

Which “Plant response rating (0 to 100), Bromegrass, Downy” value does the source give for `CC(C)n1cc(C(=O)c2ccccc2)c(-c2cc(Cl)cc(Cl)c2)n1` [Compound 44] here?
The value was 0.

Same assay, conditions: 62 g ai/ha

For `CC(C)n1cc(C(=O)c2ccccc2)c(-c2cc(Cl)cc(Cl)c2)n1` [Compound 44], which “Plant response rating (0 to 100), Bromegrass, Downy” value is on record?
Its value is 0.

Same assay, conditions: 125 g ai/ha

For `CC(C)n1cc(C(=O)c2ccccc2)c(-c2cc(Cl)cc(Cl)c2)n1` [Compound 44], which “Plant response rating (0 to 100), Bromegrass, Downy” value is on record?
The value was 0.

Same assay, conditions: 250 g ai/ha, scale 0 to 100

`CC(C)n1cc(C(=O)c2ccccc2)c(-c2cc(Cl)cc(Cl)c2)n1` [Compound 44] was tested. Which “Plant response rating, Bromegrass, Downy” value did it give?
Its value is 0.

Tested on: deadnettle (henbit deadnettle, Lamium amplexicaule)
Test: as above
Assay type: in vivo
Details: 31 g ai/ha
In short: as §1

For `CC(C)n1cc(C(=O)c2ccccc2)c(-c2cc(Cl)cc(Cl)c2)n1` [Compound 44], which “Plant response rating (0 to 100), Deadnettle” value is on record?
The value was 0.

Same assay, conditions: 62 g ai/ha

`CC(C)n1cc(C(=O)c2ccccc2)c(-c2cc(Cl)cc(Cl)c2)n1` [Compound 44] was tested. Which “Plant response rating (0 to 100), Deadnettle” value did it give?
Its value is 0.

Same assay, conditions: 125 g ai/ha

`CC(C)n1cc(C(=O)c2ccccc2)c(-c2cc(Cl)cc(Cl)c2)n1` [Compound 44] was tested. Which “Plant response rating (0 to 100), Deadnettle” value did it give?
Its value is 0.

Same assay, conditions: 250 g ai/ha, scale 0 to 100

With `CC(C)n1cc(C(=O)c2ccccc2)c(-c2cc(Cl)cc(Cl)c2)n1` [Compound 44] as the compound, how does the “Plant response rating, Deadnettle” value read?
The value was 0.

Tested on: canarygrass (Phalaris minor)
Test: as above
Assay type: in vivo
Details: 31 g ai/ha
In short: as §1

`CC(C)n1cc(C(=O)c2ccccc2)c(-c2cc(Cl)cc(Cl)c2)n1` [Compound 44] was tested. Which “Plant response rating (0 to 100), Canarygrass” value did it give?
Its value is 0.

Same assay, conditions: 62 g ai/ha

How did the “Plant response rating (0 to 100), Canarygrass” value turn out when `CC(C)n1cc(C(=O)c2ccccc2)c(-c2cc(Cl)cc(Cl)c2)n1` [Compound 44] was run?
The value was 0.

Same assay, conditions: 125 g ai/ha

For `CC(C)n1cc(C(=O)c2ccccc2)c(-c2cc(Cl)cc(Cl)c2)n1` [Compound 44], which “Plant response rating (0 to 100), Canarygrass” value is on record?
Its value is 0.

Same assay, conditions: 250 g ai/ha, scale 0 to 100

Which “Plant response rating, Canarygrass” value does the source give for `CC(C)n1cc(C(=O)c2ccccc2)c(-c2cc(Cl)cc(Cl)c2)n1` [Compound 44] here?
Its value is 0.

Tested on: winter barley (Hordeum vulgare)
Test: as above
Assay type: in vivo
Details: 31 g ai/ha
In short: as §1

For `CC(C)n1cc(C(=O)c2ccccc2)c(-c2cc(Cl)cc(Cl)c2)n1` [Compound 44], which “Plant response rating (0 to 100), Barley” value is on record?
Its value is 0.

Same assay, conditions: 62 g ai/ha

For `CC(C)n1cc(C(=O)c2ccccc2)c(-c2cc(Cl)cc(Cl)c2)n1` [Compound 44], which “Plant response rating (0 to 100), Barley” value is on record?
Its value is 0.

Same assay, conditions: 125 g ai/ha

Which “Plant response rating (0 to 100), Barley” value does the source give for `CC(C)n1cc(C(=O)c2ccccc2)c(-c2cc(Cl)cc(Cl)c2)n1` [Compound 44] here?
Its value is 0.

Same assay, conditions: 250 g ai/ha, scale 0 to 100

Which “Plant response rating, Barley” value does the source give for `CC(C)n1cc(C(=O)c2ccccc2)c(-c2cc(Cl)cc(Cl)c2)n1` [Compound 44] here?
Its value is 0.

Tested on: surinam grass (Brachiaria decumbens)
Test: as above
Assay type: in vivo
Details: 62 g ai/ha
In short: as §1

`CC(C)n1cc(C(=O)c2ccccc2)c(-c2cc(Cl)cc(Cl)c2)n1` [Compound 44] was tested. Which “Plant response rating (0 to 100), Surinam Grass” value did it give?
Its value is 0.

Same assay, conditions: 125 g ai/ha

How did the “Plant response rating (0 to 100), Surinam Grass” value turn out when `CC(C)n1cc(C(=O)c2ccccc2)c(-c2cc(Cl)cc(Cl)c2)n1` [Compound 44] was run?
Its value is 0.

Same assay, conditions: 250 g ai/ha, scale 0 to 100

With `CC(C)n1cc(C(=O)c2ccccc2)c(-c2cc(Cl)cc(Cl)c2)n1` [Compound 44] as the compound, how does the “Plant response rating, Surinam Grass” value read?
The value was 0.

Tested on: sedge, umbrella (small-flower umbrella sedge, Cyperus difformis)
Test: Test B flooded paddy test, plant response rating 0-100
Assay type: in vivo
Details: Flood, 250 g ai/ha; scale 0 to 100 (0 no effect, 100 complete control); 13 to 15 days
In short: (§2)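 Test compounds are applied straight into paddy water held 3 cm above the soil surface, with that flood maintained for the whole test. After 13 to 15 days in the greenhouse, each species is scored visually relative to controls.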

`CC(C)n1cc(C(=O)c2ccccc2)c(-c2cc(Cl)cc(Cl)c2)n1` [Compound 44] was tested. Which “Plant response rating, Sedge, Umbrella” value did it give?
The value was 0.

Tested on: rice (Oryza sativa)
Test: as above
Assay type: in vivo
Details: Flood, 250 g ai/ha; scale 0 to 100 (0 no effect, 100 complete control); 13 to 15 days
In short: as §2

How did the “Plant response rating, Rice” value turn out when `CC(C)n1cc(C(=O)c2ccccc2)c(-c2cc(Cl)cc(Cl)c2)n1` [Compound 44] was run?
Its value is 0.

Tested on: barnyardgrass (Echinochloa crus-galli)
Test: as above
Assay type: in vivo
Details: Flood, 250 g ai/ha; scale 0 to 100 (0 no effect, 100 complete control); 13 to 15 days
In short: as §2

For `CC(C)n1cc(C(=O)c2ccccc2)c(-c2cc(Cl)cc(Cl)c2)n1` [Compound 44], which “Plant response rating, Barnyardgrass” value is on record?
The value was 0.

Tested on: ducksalad (Heteranthera limosa)
Test: as above
Assay type: in vivo
Details: Flood, 250 g ai/ha; scale 0 to 100 (0 no effect, 100 complete control); 13 to 15 days
In short: as §2

`CC(C)n1cc(C(=O)c2ccccc2)c(-c2cc(Cl)cc(Cl)c2)n1` [Compound 44] was tested. Which “Plant response rating, Ducksalad” value did it give?
Its value is 0.
